In patent US11225474B2, “Crystalline salt forms of 3-(1,2,4-triazolo[4,3-a]pyridine-3-ylethynyl)-4-methyl-N-(4-((4-methylpiperazin-1-yl)methyl)-3-trifluoromethylphenyl)benzamide for medical application” (priority 2016, dated 2022):
pIC50: −log10 of the molar value. Like-named read-outs stand apart in the source and are kept apart here.

Assays:
[1] = Stability, 7 days at T = 60° C.; format: physicochemical
[2] = Hygroscopicity by gravimetric moisture absorption; format: physicochemical; details: relative air humidity of 90%
Text: Samples were also studied using the following methods: polarization microscopy (Leica DMRB Polarized Microscope, resolution of 1600×1200)—to confirm crystallinity, ion chromatography—to confirm anion and cation stoichiometric proportion, differential scanning calorimetry (DSC) and thermogravimetric analysis (TGA)—to confirm composition and study of temperature stability of samples; ^1H NMR (500 MHz Bruker AVANCE 500.13 MHz, solvent DMSO-d6)—to confirm structure, assess purity and content of organic solvents; gravimetric moisture absorption—to assess hygroscopicity. DSC was carried out using Mettler 822e DSC apparatus. The measuring system was calibrated according to ISO 11357-1 standard based on standard substances phase changes (C6H12; Hg; benzoic acid; Ga; KNO3; In; Sn; Bi; CsCl; purity grade 99.99%). Temperature calibration regular error (determined based on In) is 0.1°. Samples were tested in standard aluminum cells in the artificial air flow at a temperature range of 30-300° C. with heating speed of 10°/min. TG measurements were taken using Mettler 851e SDTA/TGA TG analyzer. The apparatus was calibrated using standard substances melting points (Ag; Al; Bi; In; Sn; purity grade of 99.99%). Weighing error is NMT 0.1% (determined using CaC2O4·2H2O standard). The test was carried out in a standard open aluminum container in the artificial air flow at a temperature range of 30-150° C. with heating speed of 10°/min. To avoid dehydration, the material was not exposed to mechanical treatment before taking measurements.

EPHB2 = EPHB2 (Homo sapiens, UniProt P29323); assay: Human kinase panel at 100 nM; format: biochemical
Chain of EPHB2 (P29323 19-1055): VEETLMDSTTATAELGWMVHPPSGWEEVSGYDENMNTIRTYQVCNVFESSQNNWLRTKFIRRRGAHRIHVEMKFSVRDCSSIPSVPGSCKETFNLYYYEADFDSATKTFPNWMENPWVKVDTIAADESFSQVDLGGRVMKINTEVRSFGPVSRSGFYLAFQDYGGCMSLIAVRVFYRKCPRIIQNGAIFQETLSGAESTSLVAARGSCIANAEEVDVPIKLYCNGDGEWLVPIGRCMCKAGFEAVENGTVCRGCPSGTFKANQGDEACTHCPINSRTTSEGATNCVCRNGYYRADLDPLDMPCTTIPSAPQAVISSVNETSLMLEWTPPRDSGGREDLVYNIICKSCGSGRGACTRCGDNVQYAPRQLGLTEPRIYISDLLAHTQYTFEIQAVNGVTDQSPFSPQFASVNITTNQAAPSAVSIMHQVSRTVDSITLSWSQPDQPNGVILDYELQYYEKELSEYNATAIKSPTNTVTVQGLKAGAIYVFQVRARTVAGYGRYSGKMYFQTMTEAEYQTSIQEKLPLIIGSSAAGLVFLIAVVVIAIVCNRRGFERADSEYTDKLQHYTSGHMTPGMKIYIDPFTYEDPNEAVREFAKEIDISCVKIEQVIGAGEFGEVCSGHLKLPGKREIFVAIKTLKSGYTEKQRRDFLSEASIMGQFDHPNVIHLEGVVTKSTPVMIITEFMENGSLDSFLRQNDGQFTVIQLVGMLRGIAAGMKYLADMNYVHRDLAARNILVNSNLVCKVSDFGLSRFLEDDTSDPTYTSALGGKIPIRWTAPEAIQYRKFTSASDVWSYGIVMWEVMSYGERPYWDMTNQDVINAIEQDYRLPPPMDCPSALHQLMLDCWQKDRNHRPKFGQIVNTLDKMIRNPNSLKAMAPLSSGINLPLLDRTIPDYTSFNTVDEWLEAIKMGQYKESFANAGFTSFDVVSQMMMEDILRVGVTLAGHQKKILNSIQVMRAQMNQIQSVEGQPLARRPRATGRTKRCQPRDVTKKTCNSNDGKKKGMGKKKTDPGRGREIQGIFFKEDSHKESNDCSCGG

FYN = FYN (Homo sapiens, UniProt P06241); assay: Human kinase panel at 100 nM; format: biochemical
Chain of FYN (P06241 whole entry): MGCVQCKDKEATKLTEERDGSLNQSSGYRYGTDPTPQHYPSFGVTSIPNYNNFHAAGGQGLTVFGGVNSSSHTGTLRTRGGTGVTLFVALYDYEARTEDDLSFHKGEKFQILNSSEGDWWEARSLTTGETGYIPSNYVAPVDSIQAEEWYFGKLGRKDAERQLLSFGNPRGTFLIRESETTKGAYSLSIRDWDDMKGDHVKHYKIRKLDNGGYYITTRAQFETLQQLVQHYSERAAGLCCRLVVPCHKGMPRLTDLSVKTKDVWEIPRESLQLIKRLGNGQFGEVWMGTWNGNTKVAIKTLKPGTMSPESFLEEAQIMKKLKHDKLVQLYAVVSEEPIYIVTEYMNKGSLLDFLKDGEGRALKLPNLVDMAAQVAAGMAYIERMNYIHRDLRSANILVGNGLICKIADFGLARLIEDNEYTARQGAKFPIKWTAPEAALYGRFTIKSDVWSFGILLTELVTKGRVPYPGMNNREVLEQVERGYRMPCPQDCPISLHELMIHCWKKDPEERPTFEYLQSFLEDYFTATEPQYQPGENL

PDGFRb = PDGFRb (Homo sapiens, UniProt P09619); assay: Human kinase panel at 100 nM; format: biochemical
ZAK/MLTK = ZAK/MLTK (Homo sapiens, UniProt Q9NYL2); assay: Human kinase panel at 100 nM; format: biochemical
Chain of ZAK/MLTK (Q9NYL2 whole entry): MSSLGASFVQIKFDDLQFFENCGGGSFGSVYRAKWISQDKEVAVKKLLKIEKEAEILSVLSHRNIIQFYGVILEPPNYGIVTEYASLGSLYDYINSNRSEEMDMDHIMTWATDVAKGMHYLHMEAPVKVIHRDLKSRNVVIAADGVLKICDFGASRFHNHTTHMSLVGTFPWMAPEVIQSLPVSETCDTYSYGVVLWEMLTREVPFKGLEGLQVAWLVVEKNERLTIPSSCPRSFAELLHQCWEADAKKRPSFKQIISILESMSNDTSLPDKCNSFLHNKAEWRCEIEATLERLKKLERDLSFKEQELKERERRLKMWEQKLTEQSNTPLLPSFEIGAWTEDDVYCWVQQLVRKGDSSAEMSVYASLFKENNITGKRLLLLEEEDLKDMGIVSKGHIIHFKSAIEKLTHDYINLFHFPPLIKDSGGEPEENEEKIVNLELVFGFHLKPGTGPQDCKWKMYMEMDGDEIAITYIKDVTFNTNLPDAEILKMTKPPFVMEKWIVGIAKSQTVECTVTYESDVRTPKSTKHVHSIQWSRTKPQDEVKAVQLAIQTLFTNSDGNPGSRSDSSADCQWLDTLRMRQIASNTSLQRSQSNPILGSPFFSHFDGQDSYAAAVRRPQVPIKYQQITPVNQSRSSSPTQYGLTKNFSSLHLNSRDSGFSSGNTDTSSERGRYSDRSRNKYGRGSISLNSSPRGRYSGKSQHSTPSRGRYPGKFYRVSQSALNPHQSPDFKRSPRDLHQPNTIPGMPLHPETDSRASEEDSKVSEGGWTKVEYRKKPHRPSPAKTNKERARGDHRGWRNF

K562 = assay: Cytotoxicity, Ph+ CML model cell line; format: cell-based; details: Homo sapiens, read-out: IC50 (toxicity)
BaF3/BCR-ABL = assay: Toxicity to transduced BaF3 model tumor cell line; format: cell-based, murine; details: Mus musculus
BaF3/BCR-ABL E255K = assay: Toxicity to transduced BaF3 model tumor cell line; format: cell-based, murine; details: Mus musculus
MDA-MB-468 = assay: Cytotoxicity, breast cancer line; format: cell-based, human
EL4 = assay: Cytotoxicity, lymphoma line; format: cell-based, human
K562 line cells = assay: Xenograft chronic leukemia model; format: in vivo, thymus-deprived mice; details: oral, 14 days, follow-up 240 days
Text: The therapy was started after the size of the tumor had reached 500 mm^3, therapy duration was 14 days, the follow-up period was 240 days.

[3] = tested on: marrow cells obtained from C57BL/6N line mice with induced acute leukemia; assay: Acute leukemia mouse model; format: in vivo; details: oral, 40 mg/kg (34 mg/kg as free base), 2 weeks
Method: To induce the pathology, marrow cells obtained from C57BL/6N line mice with induced acute leukemia were used. Cells were injected to the tail vein of an animal following administration of a sub lethal dose of radiation. Therapy was initiated on the 5th day after pathology induction and continued for 2 weeks.

in vivo = details: for Vd / half-life / clearance / AUC / bioavailability: in vivo; for Vd: read-out: apparent volume of distribution Vd; for half-life: read-out: half-life period (converted); for clearance: intravenous administration; for bioavailability: read-out: bioavailability F
Text: Clearance following intravenous administration is quite high: 2.12 L/h/kg for dogs, 1.61 L/h/kg for rats. A large apparent volume of distribution (Vd=14.1 L/kg for dogs, 6.16 L/kg for rats) indicates extensive drug distribution in tissues.

CYP1A2 = CYP1A2 (Homo sapiens, UniProt P05177); assay: Metabolism study using cytochrome enzyme drugs; format: in vitro ADME
Chain of CYP1A2 (P05177 whole entry): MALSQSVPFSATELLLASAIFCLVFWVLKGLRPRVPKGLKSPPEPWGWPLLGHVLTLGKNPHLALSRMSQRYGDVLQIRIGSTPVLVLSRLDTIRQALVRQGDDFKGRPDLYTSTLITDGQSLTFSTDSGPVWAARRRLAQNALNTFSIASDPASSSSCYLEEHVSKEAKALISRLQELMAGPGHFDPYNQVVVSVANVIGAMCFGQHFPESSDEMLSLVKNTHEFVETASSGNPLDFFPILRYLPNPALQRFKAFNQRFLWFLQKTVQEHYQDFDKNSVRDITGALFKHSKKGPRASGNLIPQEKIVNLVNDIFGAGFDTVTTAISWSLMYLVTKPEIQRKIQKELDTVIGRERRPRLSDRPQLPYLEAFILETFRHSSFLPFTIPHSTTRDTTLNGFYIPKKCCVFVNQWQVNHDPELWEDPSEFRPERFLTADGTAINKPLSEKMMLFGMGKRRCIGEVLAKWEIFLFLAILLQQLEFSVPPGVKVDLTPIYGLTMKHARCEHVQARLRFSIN

CYP2B6 = CYP2B6 (Homo sapiens, UniProt P20813); assay: Metabolism study using cytochrome enzyme drugs; format: in vitro ADME; details: 2B6
Chain of CYP2B6 (P20813 whole entry): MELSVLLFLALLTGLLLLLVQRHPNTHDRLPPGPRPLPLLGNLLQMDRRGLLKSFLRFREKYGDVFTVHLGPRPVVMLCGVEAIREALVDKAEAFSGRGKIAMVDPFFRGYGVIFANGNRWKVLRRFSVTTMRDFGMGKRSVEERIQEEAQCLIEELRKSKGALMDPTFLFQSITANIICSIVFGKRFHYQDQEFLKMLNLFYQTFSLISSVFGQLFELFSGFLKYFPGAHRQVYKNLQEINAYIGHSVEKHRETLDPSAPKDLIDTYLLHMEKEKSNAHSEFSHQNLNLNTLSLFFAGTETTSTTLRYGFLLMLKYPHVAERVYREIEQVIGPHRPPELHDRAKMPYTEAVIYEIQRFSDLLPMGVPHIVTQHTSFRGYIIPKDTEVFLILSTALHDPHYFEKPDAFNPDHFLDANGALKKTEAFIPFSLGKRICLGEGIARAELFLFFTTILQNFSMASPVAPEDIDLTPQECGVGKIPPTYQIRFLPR

CYP2C9 = CYP2C9 (Homo sapiens, UniProt P11712); assay: Metabolism study using cytochrome enzyme drugs; format: in vitro ADME; details: 2C9
Chain of CYP2C9 (P11712 whole entry): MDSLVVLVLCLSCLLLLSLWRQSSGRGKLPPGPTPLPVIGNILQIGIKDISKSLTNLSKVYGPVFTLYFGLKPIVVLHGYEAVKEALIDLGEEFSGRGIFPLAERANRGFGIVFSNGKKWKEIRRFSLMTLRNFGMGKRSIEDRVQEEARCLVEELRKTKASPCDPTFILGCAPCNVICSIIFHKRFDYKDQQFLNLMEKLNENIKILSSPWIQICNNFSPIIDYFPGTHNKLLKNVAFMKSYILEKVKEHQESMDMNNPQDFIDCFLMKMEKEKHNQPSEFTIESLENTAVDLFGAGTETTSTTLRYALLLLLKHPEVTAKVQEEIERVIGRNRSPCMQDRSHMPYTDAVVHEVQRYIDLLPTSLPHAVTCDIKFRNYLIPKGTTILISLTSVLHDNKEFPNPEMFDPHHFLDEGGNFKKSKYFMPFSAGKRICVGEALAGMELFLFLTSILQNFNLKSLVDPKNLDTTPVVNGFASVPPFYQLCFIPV

CYP2C19 = CYP2C19 (Homo sapiens, UniProt P33261); assay: Metabolism study using cytochrome enzyme drugs; format: in vitro ADME; details: 2C19
Chain of CYP2C19 (P33261 whole entry): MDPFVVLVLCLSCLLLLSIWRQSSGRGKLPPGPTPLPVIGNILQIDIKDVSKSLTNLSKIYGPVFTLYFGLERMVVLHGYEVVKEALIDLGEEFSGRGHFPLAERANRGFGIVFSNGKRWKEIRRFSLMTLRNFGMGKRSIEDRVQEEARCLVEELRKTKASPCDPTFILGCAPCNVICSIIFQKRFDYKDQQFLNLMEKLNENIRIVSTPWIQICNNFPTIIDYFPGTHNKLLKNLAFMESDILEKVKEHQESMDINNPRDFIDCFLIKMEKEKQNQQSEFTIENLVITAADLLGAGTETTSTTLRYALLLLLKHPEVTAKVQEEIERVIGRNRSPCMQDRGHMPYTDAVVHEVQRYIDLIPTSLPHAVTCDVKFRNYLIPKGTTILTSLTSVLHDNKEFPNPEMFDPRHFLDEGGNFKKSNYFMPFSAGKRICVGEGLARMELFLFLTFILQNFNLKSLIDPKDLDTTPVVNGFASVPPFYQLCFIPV

mice = assay: Acute toxicity studies, mice; format: in vivo
physchem = details: deionized water, thermodynamic from solid, Equilibrium solubility, HPLC analysis
Bcr-Abl (T315I) = Bcr-Abl (T315I) (Homo sapiens, UniProt P00519, T315I, form not given); assay: Bcr-Abl tyrosine kinase enzyme activity; details: 3 independent experiments
Bcr-Abl (Q252H) = Bcr-Abl (Q252H) (Homo sapiens, UniProt P00519, Q252H, form not given); assay: Bcr-Abl tyrosine kinase enzyme activity
Bcr-Abl (Y253F) = Bcr-Abl (Y253F) (Homo sapiens, UniProt P00519, Y253F, form not given); assay: Bcr-Abl tyrosine kinase enzyme activity

CS(=O)(=O)O.Cc1ccc(C(=O)Nc2ccc(CN3CCN(C)CC3)c(C(F)(F)F)c2)cc1C#Cc1nnc2ccccn12 [methanesulfonic acid salt, 3-(1,2,4-triazolo[4,3-a]pyridine-3-ylethynyl)-4-methyl-N-(4-((4-methylpiperazin-1-yl)methyl)-3-trifluoromethylphenyl)benzamide mono methanesulfonic acid salt]
Crystallinity in 7 days ([1]; 7 days at T = 60° C.): Cryst.
Relative peak area, in 7 days ([1]; 7 days at T = 60° C.): 99.7%
Relative peak area, initial ([1]; before storage): 99.7%
content of impurities ([1]; kept seven days at 60° C.): remained constant
water absorbed (hygroscopicity) [2]: less than two mass percent of water
inhibition at 0.1 µM (EPHB2): > 50%
inhibition at 0.1 µM (FYN): > 50%
inhibition at 0.1 µM (PDGFRb): > 50%
inhibition at 0.1 µM (ZAK/MLTK): > 50%
pIC50 (K562): 8.10
pIC50 (BaF3/BCR-ABL): 8.30
pIC50 (BaF3/BCR-ABL E255K): 7.60
cytotoxicity (MDA-MB-468): showed cytotoxicity
cytotoxicity (EL4): showed cytotoxicity
effect on the tumor size (K562 line cells; 25 mg/kg (21 as free base) per day): decrease of the tumor size to an immeasurable size with subsequent proliferation after the 35th day of follow-up
effect on the tumor size (K562 line cells; 40 mg/kg (34 as free base) per day): elimination of the tumor without relapse during all 240 days of follow-up in all mice
increase of average lives compared to the control group [3]: more than 25%
Vd (in vivo; dog, dogs): 14.1 L/kg
half-life (in vivo; dog, dogs): ~7 h
clearance (in vivo; dog, dogs): 35.3 mL/min/kg
AUC (in vivo; dog, oral, dogs, 2 mg/kg): 420 ng·h/mL
AUC (in vivo; dog, oral, dogs, 22 mg/kg): 5480 ng·h/mL
AUC (in vivo; dog, oral, dogs, 45 mg/kg): 5170 ng·h/mL
bioavailability (in vivo; dog, oral, dogs, 2 to 22 mg/kg (2 to 19 mg/kg as free base)): 45.9 to 66.1%
maximum plasma concentration (in vivo; oral, dogs, 2 to 45 mg/kg): 31.8 to 224 ng/mL
time to maximum plasma concentration (in vivo; oral, dogs, 2 to 45 mg/kg): 3 to 8.5 h
maximum concentration (in vivo; oral, rats, 5 mg/kg): 72 ng/mL
maximum concentration (in vivo; oral, rats, 80 mg/kg): 1250 ng/mL
time to maximum concentration (in vivo; oral, rats, 5 to 80 mg/kg): 2.3 to 5.3 h
clearance (in vivo; rat, rats): 26.8 mL/min/kg
AUC (in vivo; rat, oral, rats, 5 mg/kg): 430 ng·h/mL
AUC (in vivo; rat, oral, rats, 80 mg/kg): 21100 ng·h/mL
bioavailability (in vivo; rat, oral, rats, 5 to 80 mg/kg (4.2 to 68 mg/kg as free base)): 13.8 to 59.5%
Vd (in vivo; rat, rats): 6.16 L/kg
half-life (in vivo; rat, rats): ~3 h
participation of the isoform in metabolism (CYP1A2): does not involve
participation of the isoform in metabolism (CYP2B6): does not involve
participation of the isoform in metabolism (CYP2C9): does not involve
participation of the isoform in metabolism (CYP2C19): does not involve
LD10 (mice; calculated as the free base): 678 mg/kg
LD10 (mice; dose of the salt): 800 mg/kg
solubility thermodynamic (physchem): > 100 mg/mL
pIC50 (Bcr-Abl (T315I)): 7.68 to 9.11
pIC50 (Bcr-Abl (Q252H)): 7.92
pIC50 (Bcr-Abl (Y253F)): 8.39
